This note sets out measurements from patent US11458121B2, “Therapeutic compounds and methods to treat infection” (priority 2017, dated 2022).

In test [1] the test system is P. aeruginosa PAO1. The test can be described thus: Intrinsic MIC assay (CLSI broth microdilution). The format is cell-based. The settings on record: Pseudomonas aeruginosa, 18 h; P. aeruginosa PAO1; compound alone, without EPI; MIC = lowest concentration inhibiting 90% of growth; read-out: Antibiotic Activity Against P. aeruginosa Intrinsic MIC. From the text:
As used herein, the term “minimum inhibitory concentration (MIC)” refers to the lowest concentration of a compound (e.g., an antibiotic) that prevents visible growth of a bacterium. Assays for measuring the MIC of a compound are known in the art, for example, as described herein. As used herein, the term “intrinsic MIC” refers the MIC of a compound (e.g., an antibiotic) for the particular bacterial species that has not been pre-exposed to the compound. Intrinsic MIC Assays MIC assays were conducted in accordance with Clinical and Laboratory Standards Institute (CLSI) guidelines for broth microdilution. A 96-well plate containing cation-adjusted Mueller-Hinton (CAMH broth with 2-fold serial dilution of compounds was inoculated with log-phase bacterial at 5×10^5 CFU/mL. The final volume in each well was 100 μL. Each compound was tested in duplicate. The microtiter plates were incubated in an aerobic environment for 18 hours at 37° C. Then the bacterial growth was tested by reading the plate with a VersaMax plate reader (Molecular Devices, Inc.) at 600 nm. The MIC was defined as the lowest compound concentration that inhibited 90% of bacteria growth. The intrinsic MIC of the experimental EPIs was tested with the method described. […] The following Gram-negative bacterial strains were included in these assays: Pseudomonas aeruginosa PAO1

Test [2] relates to P. aeruginosa PAO1. The test is described as follows: MIC assay in the presence of a bacterial efflux pump inhibitor (EPI). The settings on record: P. aeruginosa PAO1; for Enhancement (intrinsic MIC versus MIC with EPI): fold enhancement with 12.5 ug/ml EPI; for Antibiotic Activity Against P. aeruginosa MIC with EPI: with 12.5 ug/ml of EPI (2S,4R)-4-(ammoniomethyl)-2-((6-(4-fluorophenyl)-1H-indole-2-carboxamido)methyl)pyrrolidin-1-ium. The format is cell-based, Pseudomonas aeruginosa. As for the experimental part:
The ability of a compound to produce an antibiotic effect can be determined using a method as described in Example 42. […] MIC assays were conducted in accordance with Clinical and Laboratory Standards Institute (CLSI) guidelines for broth microdilution. A 96-well plate containing cation-adjusted Mueller-Hinton (CAMH broth with 2-fold serial dilution of compounds was inoculated with log-phase bacterial at 5×10^5 CFU/mL. The final volume in each well was 100 μL. Each compound was tested in duplicate. The microtiter plates were incubated in an aerobic environment for 18 hours at 37° C. Then the bacterial growth was tested by reading the plate with a VersaMax plate reader (Molecular Devices, Inc.) at 600 nm. The MIC was defined as the lowest compound concentration that inhibited 90% of bacteria growth. MIC Assays in the Presence of a Bacterial Efflux Inhibitor The EPI assay for the purposes of these studies represents a MIC assay in which the MIC of the antibiotic against the bacteria is tested in the presence of an experimental efflux pump inhibitor (EPI). The highest concentration of the EPI present in the assay typically is ½ of the intrinsic MIC of the compound. […] Using serial dilutions of the EPI, its enhancement of antibiotic activity was then evaluated. The relative EPI activity was decided by comparing the MIC of the antibiotic in the presence of the EPI compound with the intrinsic MIC of the antibiotic alone. For comparative purposes, we generally used EPIs at concentration of 12.5 and 6.25 μg/ml against varying concentration of our test antibiotic.

Another test relates to E. coli 25922. The test can be described thus: Intrinsic MIC assay (CLSI broth microdilution). The following applies: Escherichia coli, 18 h; E. coli 25922; compound alone, without EPI; read-out: Antibiotic Activity Against E. coli Intrinsic MIC. It counts as cell-based, Escherichia coli. The source says:
As used herein, the term “minimum inhibitory concentration (MIC)” refers to the lowest concentration of a compound (e.g., an antibiotic) that prevents visible growth of a bacterium. Assays for measuring the MIC of a compound are known in the art, for example, as described herein. As used herein, the term “intrinsic MIC” refers the MIC of a compound (e.g., an antibiotic) for the particular bacterial species that has not been pre-exposed to the compound. Intrinsic MIC Assays MIC assays were conducted in accordance with Clinical and Laboratory Standards Institute (CLSI) guidelines for broth microdilution. A 96-well plate containing cation-adjusted Mueller-Hinton (CAMH broth with 2-fold serial dilution of compounds was inoculated with log-phase bacterial at 5×10^5 CFU/mL. The final volume in each well was 100 μL. Each compound was tested in duplicate. The microtiter plates were incubated in an aerobic environment for 18 hours at 37° C. Then the bacterial growth was tested by reading the plate with a VersaMax plate reader (Molecular Devices, Inc.) at 600 nm. The MIC was defined as the lowest compound concentration that inhibited 90% of bacteria growth. The intrinsic MIC of the experimental EPIs was tested with the method described. […] The following Gram-negative bacterial strains were included in these assays: Escherichia coli ATCC 25922

In brackets after ≈: the same amount, converted by molar mass.

Turning to `NC1CCCc2c1[nH]c1cccc(Br)c21` (stereo not drawn) [Example 5b, 5-Bromo-2,3,4,9-tetrahydro-1H-carbazol-1-amine], the MIC with P. aeruginosa PAO1 [1] was 128 µg/mL (≈ 483 µM). Moreover, in the test with P. aeruginosa PAO1 [2], the “Enhancement (intrinsic MIC versus MIC with EPI)” value is reported as “(64x)” and the “Antibiotic Activity Against P. aeruginosa MIC with EPI” value came out at 2 µg/mL. In addition, in the test with E. coli 25922, the MIC came to 16 µg/mL (≈ 60.3 µM).

Take `Cl.NC1c2[nH]c3ccc(Br)cc3c2CCC1F` (stereo not drawn) [Example 20, 6-Bromo-2-fluoro-2,3,4,9-tetrahydro-1H-carbazol-1-amine Hydrogen Chloride Salt]: the MIC with P. aeruginosa PAO1 [1] was over 256 µg/mL. For the same compound, in the test with P. aeruginosa PAO1 [2], the “Enhancement (intrinsic MIC versus MIC with EPI)” value was “(>8x)” and the “Antibiotic Activity Against P. aeruginosa MIC with EPI” value amounted to 32 µg/mL. Besides, in the test on E. coli 25922, the MIC was 64 µg/mL.

On to `COc1ccc2[nH]c3c(c2c1)CCCC3N.Cl` (stereo not drawn) [Example 18, 6-Methoxy-2,3,4,9-tetrahydro-1H-carbazol-1-amine Hydrogen Chloride Salt], for which the MIC in the test on P. aeruginosa PAO1 [1] is over 256 µg/mL. In addition, in the test on P. aeruginosa PAO1 [2], the “Enhancement (intrinsic MIC versus MIC with EPI)” value is recorded as “(>8x)” and the “Antibiotic Activity Against P. aeruginosa MIC with EPI” value was found to be 32 µg/mL. Besides, the MIC in the test on E. coli 25922 was over 256 µg/mL.
